# Laboratory results taken from patent US20100082097A1, “Article Containing Segregated Biguanide and Lewis Acid” (priority 2008, published 2010).
# Columns and labels:
# Format in all cases: physicochemical
# [1] = CHA stability in polyurethane films containing no GV (HPLC); settings: vacuum dried and humidified films, 25, 35, 45, 55° C., 20 day incubation
# Protocol: (§1) Degradation is reported in the following examples as measured by HPLC as peak area of the degradant peak divided by the total peak area of the chlorhexidine peak and the degradant peak (i.e. Peak Areadegradant/[Peak Areadegradant+Peak Areachlorhexidine]*100). The peak areas are determined from integration of chromatograms.
# (§2) A high pressure liquid chromatography (HPLC) analytical method was developed to quantify Gentian violet and chlorhexidine. Both compounds have ultraviolet or visible wavelength absorbance, and so were characterized using a UV-Vis diode array detector. Chlorhexidine and Gentian violet are identified by retention times versus a set of external standards. The external standards also form a calibration curve that is used to quantify the chlorhexidine and Gentian violet content in samples. The method is summarized as follows:
# (§3) The sample preparation method, prior to HPLC analysis, is summarized as follows: samples were placed in centrifuge tubes, to which a volume of tetrahydrofuran (THF) was added (according to cited protocols or per examples). The tubes were vortexed until the sample was completely dissolved. […]
# Samples were analyzed post air drying and post 20 day incubation. […]
# [2] = CHA stability in polyurethane films after ethylene oxide (ETO) sterilization; settings: polyurethane films containing only CHA
# Protocol: as §1, §2
# as §3, with “dissolved. For samples used as medical device coatings where a polymer was also present, a volume of deionized water was then added and the tubes were again vortexed for 10 minutes to precipitate the any polymer in the sample.” for “dissolved.”
# [3] = Brilliant Green-Chlorhexidine formulation in THF/Methanol solvent mixture, observation of solution; settings: with BG, room temperature
# Protocol: 1.04 g Tecoflex 60D and 3.28 g Tecoflex 93A in 65 g were added in a glass jar containing 65 g of Tetrahydrofuran and stirred for four (4) hours at 45° C. Once all resin solids have dissolved, 23 g methanol added into the mixture and stirred for one (1) hour. 2.939 g chlorhexidine diacetate (CHA) was added into the solution mixture and stirred overnight at room temperature. Different Brilliant green (BG) concentrations (0.1 wt %-1.0 wt %) were added per the Table 4 below to an aliquot of the polymer-CHA solution and stirred until Brilliant Green dissolved:
# Table 5 below lists different formulations of BG and CHA.
# [4] = Brilliant Green-Chlorhexidine formulation in DMF/THF solvent mixture, observation of solution; settings: 40/60 THF/DMF, with BG, room temperature
# Protocol: In this experiment 40/60 THF/DMF solvent mixture was used instead of THF/Methanol from Example 17. Different Brilliant green (BG) concentrations (0.1 wt %-1.0 wt %) were added per the Table 5 below to an aliquot of the polymer-CHA solution (in Example 17) and stirred until Brilliant Green dissolved: […]
# [5] = GV stability in polyurethane films containing no CHA (HPLC)
# From the text: as §2
# The sample preparation method, prior to HPLC analysis, is summarized as follows: samples were placed in centrifuge tubes, to which a volume of tetrahydrofuran (THF) was added (according to cited protocols or per examples). The tubes were vortexed until the sample was completely dissolved. For samples used as medical device coatings where a polymer was also present, a volume of deionized water was then added and the tubes were again vortexed for 10 minutes to precipitate the any polymer in the sample. The tubes were then centrifuged for 10 minutes at 4000 RPM to spin the polymer down out of the solution. A small amount of supernatant was transferred to an HPLC vial for analysis.
# Polyurethane films, used in the studies described in examples 4-6 and 9-11, were prepared as follows: 500 g of coating solution was prepared by dissolving 3.74% (w/w) Tecoflex 93A resin and 1.17% (w/w) Tecoflex 60D resin in a 74/26% mixture of THF/Methanol. The mixture was stirred until all of the resin was completely dissolved. 3.07% (w/w) chlorhexidine diacetate (CHA) was then added to the coating solution. Solutions containing different concentrations of GV were made by adding 0.1, 0.2, 0.4, 0.6, 0.8 or 1.0% (w/w) GV to 50 g aliquots of the CHA containing coating solution (or resin only solution in the case of GV only coating solution). 0.5 g of the CHA only, GV only, or 0.1-1.0% GV/CHA solutions was added to the bottom of a 30 mL glass vial and allowed to dry under ambient conditions overnight to evaporate the solvent and cast films in the vials. Vacuum dried samples were prepared by further drying the film containing vials at 25° C. under 30 in, Hg for 48 hours. Humidified samples were prepared by adding 75 μL of deionized water to the air dried samples and capping for the duration of the studies.
# Gentian violet only films were prepared according to example 2. Half of the vials were then spiked with 75 μL of deionized water and capped to create a 100% humidity environment, while the other half were vacuum dried ([…]) at 25° C. for 48 hours. The vials were then incubated in an oven at 25° C., 35° C., 45° C., and 55° C. for 20 days.
# Samples were analyzed post air drying and post 20 day incubation. Sample analysis was performed using the method in Example 1.
# Peak area ratios for pararosaniline chlorides are shown in Table 3 at different temperatures for 20 days. The peak area ratios for each temperature are calculated as follows: (Individual peak area)/Σ(individual peak)×100%. The variations are within the limits of experimental error further confirming the stability of GV in polyurethane films containing only GV.
Compound,degradation peaks in the chromatograms [1],stability when ETO sterilized [2],stirring time after which chlorhexidine diacetate precipitated [3] [min],stirring time after which chlorhexidine diacetate precipitated [4] [min],"degradation products detected in the chromatograms ([5]; vacuum dried and humidified GV only films, 25-55° C., 20 days)",Peak area ratio for pararosaniline chlorides ([5]; 0 day control) [%],Peak area ratio for pararosaniline chlorides ([5]; 25° C. at day 20) [%],Peak area ratio for pararosaniline chlorides ([5]; 35° C. at day 20) [%],Peak area ratio for pararosaniline chlorides ([5]; 45° C. at day 20) [%],Peak area ratio for pararosaniline chlorides ([5]; 55° C. at day 20) [%]
"CC(=O)O.CC(=O)O.NC(=N\CCCCCC/N=C(N)/N=C(\N)Nc1ccc(Cl)cc1)/N=C(\N)Nc1ccc(Cl)cc1 [CHA, chlorhexidine diacetate]",no degradation peaks,stable when sterilized,30,30,–,–,–,–,–,–
"CN(C)c1ccc(C(=C2C=CC(=[N+](C)C)C=C2)c2ccc(N(C)C)cc2)cc1 [GV, hexa-methyl pararosaniline chloride, reference compound]",–,–,–,–,no degradation products were detected,–,–,–,–,–
"CN(C)c1ccc(C(=C2C=CC(=[N+](C)C)C=C2)c2ccc(N(C)C)cc2)cc1.[Cl-] [Hexamethyl, hexamethylpararosaniline chloride]",–,–,–,–,–,42,43,44,42,45
"CN=C1C=CC(=C(c2ccc(N(C)C)cc2)c2ccc(N(C)C)cc2)C=C1.Cl [Pentamethyl, pentamethylpararosaniline chloride]",–,–,–,–,–,44,43,43,44,43
"CN(C)c1ccc(C(=C2C=CC(=[N+](C)C)C=C2)c2ccc(N)cc2)cc1.[Cl-] [Tetramethyl, tetramethylpararosaniline chloride]",–,–,–,–,–,14,14,13,14,12
